Experimental data published in patent publication US11318214B2, “Iron oxide mesoporous microparticle drug carrier” (National Guard Health Affairs, priority 2020, dated 2022).

Legend:
[1] = Drug loading onto IO-MMMs (UV-vis); assay type: physicochemical; settings: for amount of drug loaded / loading efficiency: maximal loading onto IO-MMMs; for loading efficiency: absorption spectroscopy
Description: 1 mL aqueous dispersion of IO-MMMs (1.0 mg/mL) and aqueous drug solutions (250 μg/mL) were gently shaken on a rotary shaker for 36 h to enable maximal drug loading. The particle dispersions were then isolated via centrifugation (4500 rpm, 10 min), washed repeatedly with water until no drug was detected in the supernatant by UV-vis, and finally redispersed in water to form stable aqueous dispersions of drug@IO-MMMs. In case of Tam and Daun loading, Tam was first loaded followed by Daun to afford Daun/Tam@IO-MMMs (165 μg/mL Tam; 235 μg/mL Daun). Loading efficiencies were determined by UV-Vis spectroscopy as depicted below. […] The loading efficiency was calculated as: Loading Efficiency=(W1/W0)×100, where W1 is the amount of drug loaded onto the particles, and W0 is the amount of drug in the initial solution. The amount of drug loaded onto IO-MMMs was calculated from the difference between the initial drug concentration and the drug concentration left in the supernatant.

[2] = In vitro drug release in PBS buffer at two pH values; assay type: physicochemical; settings: from IO-MMM, slightly acidic pH of 4.5, after 48 h, 37° C.
Description: In a typical study, 5 mg of drug@IO-MMMs were suspended in 1 mL PBS buffer at two different pH values (pH=7.4 and pH=4.5) and gently rotated at 37° C. in an oven provided with a precise control in the temperature within 0.01° C. The concentration of drugs in the supernatant was determined at fixed time intervals by UV-vis spectroscopy. At specific time points, supernatant aliquots obtained by centrifugation were taken from each tube, measured and returned to their respective tubes after UV-vis measurements. The drug concentration could be directly calculated from the measured absorbance. Triplicate aliquots were run for each time interval, and average values plotted. The percent drug release was calculated using the equation below: % Drug Release=(Abs(t) of released drug/Abs(t0))×100.

[3] = estimated; cited from earlier work

For COc1cccc2c1C(=O)c1c(O)c3c(c(O)c1C2=O)C[C@@](O)(C(=O)CO)C[C@@H]3O[C@H]1C[C@H](N)[C@H](O)[C@H](C)O1 [Dox, Doxorubicin], the “amount of drug loaded” value [1] is listed as ≤ 227 μg/mg of particles, the total drug released [2] is listed as “about 40%” and the molecular size [3] is listed as ~1.37 nm.
For CC/C(=C(\c1ccccc1)c1ccc(OCCN(C)C)cc1)c1ccccc1 [Tam, Tamoxifen], the “amount of drug loaded” value [1] was ≤ 165 μg/mg of particles, the loading efficiency [1] was ≤ 83% and the “loading efficiencies depending on the initial drug concentrations used” value ([1]; onto IO-MMMs) was 66-83%. For the same compound, the total drug released [2] was ~80%.
For COc1cccc2c1C(=O)c1c(O)c3c(c(O)c1C2=O)C[C@@](O)(C(C)=O)C[C@@H]3O[C@H]1C[C@H](N)[C@H](O)[C@H](C)O1 [Daun, Daunorubicin], the “amount of drug loaded” value [1] was ≤ 235 μg/mg of particles, the loading efficiency [1] was ≤ 94% and the total drug released [2] was ~50%.
